Like-named read-outs stand apart in the source and are kept apart here.
Key:
[1] = biological target: T1, p52 (Homo sapiens, UniProt Q00653); test: DSE-FRET p52–DNA binding inhibition; assay type: biochemical; design: p52 Retest % Inhibition Run2 / p52 Retest % Inhibition Avg. / Kinetic assay p52 Inhibition % ΔRFU(60 min-0 min) / p52 HTS % Inhibition / p52 Retest % Inhibition Run1: dose or concentration left out as unconfirmed; settings: for p52 Retest % Inhibition Avg.: Retest average of Run1 and Run2
T1 sequence (Q00653 1-454 limits assumed): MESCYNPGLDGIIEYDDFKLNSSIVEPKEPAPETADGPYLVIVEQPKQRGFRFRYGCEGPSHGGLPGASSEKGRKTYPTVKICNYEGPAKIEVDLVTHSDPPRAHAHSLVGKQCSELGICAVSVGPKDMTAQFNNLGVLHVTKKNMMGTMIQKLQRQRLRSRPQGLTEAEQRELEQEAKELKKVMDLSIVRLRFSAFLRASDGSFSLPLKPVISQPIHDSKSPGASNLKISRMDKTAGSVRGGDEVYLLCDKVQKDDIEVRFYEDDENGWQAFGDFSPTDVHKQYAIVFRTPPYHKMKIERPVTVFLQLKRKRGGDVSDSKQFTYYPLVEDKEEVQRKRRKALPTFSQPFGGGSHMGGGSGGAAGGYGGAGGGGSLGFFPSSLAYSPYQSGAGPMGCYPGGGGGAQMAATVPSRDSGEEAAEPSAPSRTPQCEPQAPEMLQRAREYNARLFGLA
Method: Plate-based (384 scale) DNA-binding experiments were carried out with 0.1 µL of 2 mM or 1 mg/mL compound, 2 µL of 80 nM NF-D1 (consisting of NF-01F and NF-14D), 1 µL of 20 ng/µL poly dI-dC, and 6.9 µL of 3.2 pmol protein in binding buffer (10 mM 4-(2-hydroxyethyl)-1-piperazineethanesulfonic acid (HEPES)–NaOH pH 7.9, 50 mM KCl, 0.1 mM ethylenediaminetetraacetic acid (EDTA), 2.5 mM dithiothreitol (DTT), 10% glycerol, and 0.05% Nonidet P40). The plates were incubated for 30 min at room temperature, after which 10 µL of NF-D2 (consisting of NF-02 and NF-13) was added. The plates were centrifuged at 1000 rpm for 30 s, followed by shaking for 30 s using a plate shaker (Biotec). Fluorescence was measured at 528 nm, after excitation at 485 nm, using a multiplate reader (Biotec) over a period of 60 min.

[2] = biological target: RelA (Homo sapiens, UniProt Q04206); test: DSE-FRET RelA–DNA binding inhibition; assay type: biochemical; design: Kinetic assay RelA Inhibition % ΔRFU(60 min-0 min) / RelA HTS % Inhibition / RelA Retest % Inhibition Run1 / RelA Retest % Inhibition Run2 / RelA Retest % Inhibition Avg. / Kinetic assay RelA % Inhibition ΔRFU(60 min-0 min): dose or concentration left out as unconfirmed; settings: for RelA Retest % Inhibition Avg.: Retest average of Run1 and Run2
[3] = kinetic assay, ΔRFU 60 min-0 min
[4] = HTS, 5 µg/mL, NPDepo hits, read-out: RelA HTS % Inhibition @ 5 µg/mL
[5] = Retest Run1, 5 µg/mL, read-out: RelA Retest % Inhibition @ 5 µg/mL Run1
[6] = Retest Run2, 5 µg/mL, read-out: RelA Retest % Inhibition @ 5 µg/mL Run2
[7] = Retest average of Run1 and Run2, 5 µg/mL, read-out: RelA Retest % Inhibition @ 5 µg/mL Avg.
[8] = kinetic assay, 5 µg/mL, ΔRFU 60 min-0 min, read-out: Kinetic assay @ 5 µg/mL RelA Inhibition % ΔRFU(60 min-0 min)
[9] = retest of known drugs, 1 = judged hit
[10] = HTS, known drugs, 10 µM, read-out: p52 HTS % Inhibition @ 10 µM
[11] = kinetic assay, 60 min-0 min, 10 µM, read-out: Kinetic assay @ 10 µM p52 % Inhibition ΔRFU(60 min-0 min)
[12] = retest, Run1, 10 µM, read-out: p52 Retest % Inhibition @ 10 µM Run1
[13] = retest, Run2, 10 µM, read-out: p52 Retest % Inhibition @ 10 µM Run2
[14] = retest, average of Run1 and Run2, 10 µM, read-out: p52 Retest % Inhibition @ 10 µM Avg.
[15] = HTS, known drugs, 10 µM, read-out: RelA HTS % Inhibition @ 10 µM
[16] = kinetic assay, 60 min-0 min, 10 µM, read-out: Kinetic assay @ 10 µM RelA % Inhibition ΔRFU(60 min-0 min)
[17] = retest, Run1, 10 µM, read-out: RelA Retest % Inhibition @ 10 µM Run1
[18] = retest, Run2, 10 µM, read-out: RelA Retest % Inhibition @ 10 µM Run2
[19] = retest, average of Run1 and Run2, 10 µM, read-out: RelA Retest % Inhibition @ 10 µM Avg.

RelA, sequence (Q04206 19-306 limits assumed): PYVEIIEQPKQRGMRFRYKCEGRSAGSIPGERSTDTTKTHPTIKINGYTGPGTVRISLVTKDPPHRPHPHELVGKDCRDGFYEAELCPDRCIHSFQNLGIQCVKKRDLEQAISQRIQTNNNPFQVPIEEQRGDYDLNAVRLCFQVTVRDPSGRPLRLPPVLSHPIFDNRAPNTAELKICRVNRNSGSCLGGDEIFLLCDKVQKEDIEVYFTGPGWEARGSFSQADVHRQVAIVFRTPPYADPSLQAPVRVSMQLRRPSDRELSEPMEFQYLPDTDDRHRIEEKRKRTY

**Q.** Which results are given for O=c1c(=Cc2ccc(-c3ccccc3F)o2)sc2nc3sc4c(c3c(=O)n12)CCCC4?
**A.** p52 HTS % Inhibition ([1]; HTS, NPDepo hits): 20.7%; p52 Retest % Inhibition Run1 [1]: 25.8%; p52 Retest % Inhibition Run2 [1]: 30.7%; p52 Retest % Inhibition Avg. [1]: 28.2%; Kinetic assay p52 Inhibition % ΔRFU(60 min-0 min) [1, 3]: -0.236%; RelA HTS % Inhibition ([2]; HTS, NPDepo hits): 33.6%; RelA Retest % Inhibition Run1 [2]: 26.4%; RelA Retest % Inhibition Run2 [2]: 32.2%; RelA Retest % Inhibition Avg. [2]: 29.3%; Kinetic assay RelA Inhibition % ΔRFU(60 min-0 min) [2, 3]: 0.774%

**Q.** Which results are given for CCN1C(=O)C(=CC=C2Oc3ccccc3N2CCC(=O)O)N(C)C1=S?
**A.** p52 HTS % Inhibition ([1]; HTS, NPDepo hits): 115.0%; Kinetic assay p52 Inhibition % ΔRFU(60 min-0 min) [1, 3]: -27%; RelA HTS % Inhibition ([2]; HTS, NPDepo hits): 107.7%; Kinetic assay RelA Inhibition % ΔRFU(60 min-0 min) [2, 3]: -18%

**Q.** O=C(O)CSCC(=O)N1CCn2c3c(c4cc(C5CCCCC5)ccc42)CCCC31 (stereo not drawn) was tested. Which “p52 HTS % Inhibition” value ([1]; HTS, NPDepo hits) did it give?
**A.** 19.2%

**Q.** What about the “p52 Retest % Inhibition Run1” value [1] of the same compound?
**A.** 18.8%

**Q.** What about the “p52 Retest % Inhibition Run2” value [1] of the same compound?
**A.** 22.6%

**Q.** And the “p52 Retest % Inhibition Avg.” value [1]?
**A.** 20.7%

**Q.** What about the “Kinetic assay p52 Inhibition % ΔRFU(60 min-0 min)” value [1, 3] of the same compound?
**A.** -3.52%

**Q.** What about the “RelA HTS % Inhibition” value ([2]; HTS, NPDepo hits) of the same compound?
**A.** 35.7%

**Q.** What about the “RelA Retest % Inhibition Run1” value [2] of the same compound?
**A.** 22.2%

**Q.** And the “RelA Retest % Inhibition Run2” value [2]?
**A.** 23.7%

**Q.** And the “RelA Retest % Inhibition Avg.” value [2]?
**A.** 22.9%

**Q.** And the “Kinetic assay RelA Inhibition % ΔRFU(60 min-0 min)” value [2, 3]?
**A.** -2.34%

**Q.** With O=C1C=CC(=C(c2ccc(O)c(O)c2)c2ccccc2S(=O)(=O)O)C=C1O (mixture of isomers) [Pyrocatechol violet] as the compound, how does the “Hit Judgement of: p52” value ([1]; 1 = judged hit after retest) read?
**A.** 1

**Q.** And the inhibition at 5 µg/mL ([1]; HTS, 5 µg/mL, NPDepo hits, read-out: p52 HTS % Inhibition @ 5 µg/mL)?
**A.** 4.4%

**Q.** What about the inhibition at 5 µg/mL ([1]; Retest Run1, 5 µg/mL, read-out: p52 Retest % Inhibition @ 5 µg/mL Run1) of the same compound?
**A.** 14.9%

**Q.** And the inhibition at 5 µg/mL ([1]; Retest Run2, 5 µg/mL, read-out: p52 Retest % Inhibition @ 5 µg/mL Run2)?
**A.** 16.2%

**Q.** What about the inhibition at 5 µg/mL ([1]; Retest average of Run1 and Run2, 5 µg/mL, read-out: p52 Retest % Inhibition @ 5 µg/mL Avg.) of the same compound?
**A.** 15.6%

**Q.** What about the inhibition at 5 µg/mL ([1]; kinetic assay, 5 µg/mL, ΔRFU 60 min-0 min, read-out: Kinetic assay @ 5 µg/mL p52 Inhibition % ΔRFU(60 min-0 min)) of the same compound?
**A.** 6%

**Q.** What about the “Hit Judgement of: RelA” value ([2]; 1 = judged hit after retest) of the same compound?
**A.** 1

**Q.** What about the inhibition at 5 µg/mL [2, 4] of the same compound?
**A.** 52.5%

**Q.** What about the inhibition at 5 µg/mL [2, 5] of the same compound?
**A.** 43.2%

**Q.** What about the inhibition at 5 µg/mL [2, 6] of the same compound?
**A.** 47.5%

**Q.** What about the inhibition at 5 µg/mL [2, 7] of the same compound?
**A.** 45.3%

**Q.** What about the inhibition at 5 µg/mL [2, 8] of the same compound?
**A.** 15%

**Q.** For O=C1NC(=O)c2c1c1c3ccccc3[nH]c1c1[nH]c3ccccc3c21 [Arcyriaflavin A], which “Kinetic assay p52 % Inhibition ΔRFU(60 min-0 min)” value ([1]; kinetic assay, 60 min-0 min) is on record?
**A.** -3.54%

**Q.** And the “Kinetic assay RelA % Inhibition ΔRFU(60 min-0 min)” value ([2]; kinetic assay, 60 min-0 min)?
**A.** -3.51%

**Q.** How did the “p52 HTS % Inhibition” value ([1]; HTS, known drugs) turn out when CC1(C)C(=O)N=C2C1=C(O)C(=O)c1ccccc12 [BVT 948] was run?
**A.** 38.2%

**Q.** What about the “p52 Retest % Inhibition Run1” value [1] of the same compound?
**A.** 22.0%

**Q.** And the “p52 Retest % Inhibition Run2” value [1]?
**A.** 33.7%

**Q.** What about the “p52 Retest % Inhibition Avg.” value [1] of the same compound?
**A.** 27.8%

**Q.** And the “Kinetic assay p52 % Inhibition ΔRFU(60 min-0 min)” value ([1]; kinetic assay, 60 min-0 min)?
**A.** 7%

**Q.** What about the “Hit Judgement of: p52” value [1, 9] of the same compound?
**A.** 1

**Q.** And the “RelA HTS % Inhibition” value ([2]; HTS, known drugs)?
**A.** 34.4%

**Q.** What about the “RelA Retest % Inhibition Run1” value [2] of the same compound?
**A.** 48.4%

**Q.** What about the “RelA Retest % Inhibition Run2” value [2] of the same compound?
**A.** 67.6%

**Q.** And the “RelA Retest % Inhibition Avg.” value [2]?
**A.** 58.0%

**Q.** And the “Kinetic assay RelA % Inhibition ΔRFU(60 min-0 min)” value ([2]; kinetic assay, 60 min-0 min)?
**A.** 21%

**Q.** And the “Hit Judgement of: RelA” value [2, 9]?
**A.** 1

**Q.** What does the source list for CC(C)(O/N=C(\C(=O)N[C@@H]1C(=O)N2C(C(=O)[O-])=C(C[n+]3ccccc3)CS[C@H]12)c1csc(N)n1)C(=O)O [CEFTAZIDIME]?
**A.** inhibition at 10 µM [1, 10]: 98%; inhibition at 10 µM [1, 11]: 92%; Hit Judgement of: p52 [1, 9]: 1; inhibition at 10 µM [1, 12]: 78.9%; inhibition at 10 µM [1, 13]: 110%; inhibition at 10 µM [1, 14]: 94.2%; inhibition at 10 µM [2, 15]: 96.9%; inhibition at 10 µM [2, 16]: 94%; Hit Judgement of: RelA [2, 9]: 1; inhibition at 10 µM [2, 17]: 91.9%; inhibition at 10 µM [2, 18]: 106%; inhibition at 10 µM [2, 19]: 98.9%

**Q.** Which results are given for COc1cc(/C=C/C(=O)CC(=O)/C=C/c2ccc(O)c(OC)c2)ccc1O [Curcumin]?
**A.** inhibition at 5 µg/mL [2, 4]: 116%; inhibition at 5 µg/mL [2, 5]: 135%; inhibition at 5 µg/mL [2, 6]: 149%; inhibition at 5 µg/mL [2, 7]: 142%; inhibition at 5 µg/mL [2, 8]: -84%

**Q.** Which “Kinetic assay p52 % Inhibition ΔRFU(60 min-0 min)” value ([1]; kinetic assay, 60 min-0 min) does the source give for COc1cccc2c1C(=O)c1c(O)c3c(c(O)c1C2=O)C[C@@](O)(C(C)=O)C[C@@H]3O[C@H]1C[C@H](N)[C@H](O)[C@H](C)O1 [DAUNORUBICIN] here?
**A.** -16%

**Q.** For CC(C)(CO)[C@@H](O)C(=O)NCCCO [DEXPANTHENOL], which inhibition at 10 µM [1, 10] is on record?
**A.** 241%

**Q.** What about the inhibition at 10 µM [1, 11] of the same compound?
**A.** -1.23%

**Q.** And the inhibition at 10 µM [1, 12]?
**A.** 207%

**Q.** And the inhibition at 10 µM [1, 13]?
**A.** 231%

**Q.** And the inhibition at 10 µM [1, 14]?
**A.** 219%

**Q.** And the inhibition at 10 µM [2, 15]?
**A.** 242%

**Q.** And the inhibition at 10 µM [2, 16]?
**A.** -4.64%

**Q.** And the inhibition at 10 µM [2, 17]?
**A.** 226%

**Q.** And the inhibition at 10 µM [2, 18]?
**A.** 246%

**Q.** And the inhibition at 10 µM [2, 19]?
**A.** 236%
